pIC50: −log10 of the molar value. Where two headings read alike, the source gives them in different places.

A word on the pIC50: it is the IC50 on a negative log10 scale, so that one unit is a factor of ten. Low values mean a large IC50, high ones a small IC50. Broadly, the IC90 is the point of the concentration-response curve where the effect stands at 90%. Usually inhibition stands for the drop in the measured response relative to a control, in per cent.

In one assay the test system is HK6a (GT6a). The assay is described as follows: Luciferase infection assay, chimeric reporter virus HK6a/6a/R2a in Huh7-Lunet/CD81 cells. It is filed as cell-based, HCV. Conditions: Hepatitis C virus, Huh-7, 72 h.
In assay [1] the test system is Luc-Jc1/E2/G451R reporter viruses. The assay is described as follows: Resistance test, Luc-Jc1 versus Luc-Jc1/E2/G451R reporter virus. The following applies: Huh7-Lunet/CD81 cells, luciferase 72 h. The assay is classed as cell-based, HCV. On the procedure:
FIG. 4: BJ486K is not affected by viral resistance towards a SR-BI-targeting compound, inhibits HCV of different genotypes and prevents infection of primary human hepatocytes Huh7-Lunet/CD81 cells were inoculated with Luc-Jc1 or Luc-Jc1/E2/G451R reporter viruses in the presence of increasing doses of (A) ITX 5061 or (B) BJ486K. Cells were lysed 72 h later. Luciferase activity was determined and is expressed relative to control infections conducted in the presence of DMSO. Mean values of four independent experiments each with quadruplicate measurements including the standard deviation are shown. (C) Huh7-Lunet/CD81 cells were inoculated with genotype 1a, 1b, 2b, 3a, 4a, 5a and 6a chimeric reporter viruses in the presence of increasing doses of BJ486K. Luciferase activity was determined 72 h later and is expressed relative to infections in the presence of DMSO. Mean values of three independent experiments, each with triplicate measurements, are given. (D) Primary human hepatocytes were inoculated with Con1/C3 in the presence of DMSO or increasing concentrations of BJ486K. The inhibition of HCV infection was assessed by focus-formation assay and is expressed as % inhibition relative to DMSO-treated cells. Mean values of duplicate measurements including the error range are given. […]

A further assay has as its system SA13 (GT5a). As to the kind of experiment: Luciferase infection assay, chimeric reporter virus SA13/5a/R2a in Huh7-Lunet/CD81 cells. It is filed as cell-based, HCV. The following applies: Hepatitis C virus, Huh-7, 72 h.
Assay [2] relates to subgenomic JFH1 luciferase replicon. The assay is described as follows: HCV RNA translation and replication, subgenomic luciferase replicon in Huh7-Lunet/CD81 cells. It is filed as cell-based. Conditions: up to a dose of 10 μM, 72 h post transfection. How it is done: (A) Huh7-Lunet/CD81 cells were transfected with the subgenomic luciferase replicon depicted at the top. Drugs were added 4 h post transfection and the level of HCV RNA translation and RNA replication was quantified by luciferase assays 72 h post transfection. Mean values of three independent experiments each with quadruplicate measurements including the standard deviation are shown. (B) Cells were transfected with the Jc1 chimera depicted above and drugs were added 4 h later. HCV virus release in the presence or absence of given compounds was determined by quantification of intracellular and extracellular core protein levels using a core-specific ELISA. Mean values of three independent experiments with single measurements including the error range are given. (C) Huh7-Lunet/CD81 cells were inoculated with Luc-Jc1 reporter viruses prepared in the absence of drugs. […] Infectivity was determined 72 h later by luciferase assays and compared to DMSO-treated controls. […]
To characterize the antiviral effect of BJ486K, the impact of BJ486K on the steps of HCV RNA translation and replication was assessed. To this end, Huh7-Lunet/CD81 cells were transfected with a subgenomic JFH1 luciferase replicon and RNA replication was monitored 72 h later by luciferase assays. […]
For orientation: Replicon systems follow genome replication, usually without infectious particles.

In another assay the test system is J4 (GT1b). The assay is described as follows: Luciferase infection assay, chimeric reporter virus J4/1b/R2a in Huh7-Lunet/CD81 cells. It is filed as cell-based, HCV. The following applies: Hepatitis C virus, Huh-7, 72 h.
A further assay concerns S52 (GT3a). The assay is described as follows: Luciferase infection assay, chimeric reporter virus S52/3a/R2a in Huh7-Lunet/CD81 cells. It is filed as cell-based, HCV. Conditions: Hepatitis C virus, Huh-7, 72 h.
Another assay concerns JcR-2a virus particles. As to the kind of experiment: Antiviral activity against early steps of HCV cell entry, synchronized JcR-2a infection (FIG. 3). Conditions: Hepatitis C virus. It is filed as cell-based. On the procedure:
FIG. 3: BJ486K inhibits cell entry post virus attachment. The design of the JcR-2a reporter virus construct is given at the top. Huh7-Lunet/CD81 cells were inoculated with concentrated JcR-2a particles at 4° C. for 60 minutes. Subsequently, unbound virus particles were washed away and cells were shifted to 37° C. to permit synchronized cell entry. According to the 8 experimental protocols depicted in the middle, various cell entry inhibitors including heparin (50 μg/ml), ITX5061 (10 μM), CD81-specific antibody JS-81 (2 μg/ml) and BJ486K (20 μM) were either present during inoculation (protocol 1) or were added at different time points after inoculation (protocols 2 to 8). In each case, inhibitor was present for 4 h (dashed line) and was then washed away. Efficiency of cell entry was determined 48 h post inoculation by determination of luciferase activity and is expressed relative to control infections conducted in the presence of solvent alone (DMSO). Mean values of three independent experiments each with quadruplicate measurements including the standard deviation are shown.
JcR-2a virus particles were incubated with Huh7-Lunet/CD81 cells seeded as described above for 1 h at 4° C. to synchronize cell entry. Various inhibitors including 50 μg/ml heparin (Sigma-Aldrich), CD81-specific antibody JS-81 (2 μg/ml; Becton Dickinson), ITX 5061 (10 μM) or BJ486K (20 μM), were added during virus inoculation (protocol 1) or at indicated time points after virus inoculation (protocol 2-8). After 4 h inhibitor treatment, medium was changed to fresh culture fluid without inhibitors and the cells were lysed 48 h after inoculation as described above. Efficiency of infection was determined by luciferase assay using a tube luminometer (Lumat LB9507, Berthold, Freiburg, Germany).
To resolve which step of HCV cell entry is inhibited by BJ486K, we assessed its antiviral activity when administered at different time points during the early phase of infection. To this end, Huh7-Lunet/CD81 cells were inoculated for one hour at 4° C. with a reporter virus prepared in the absence of drugs. […]

As for `COc1ccc(-c2cc(=O)c3c(O)c(O)c(OC)cc3o2)cc1` [BJ486K, 5,6-Dihydroxy-7-methoxy-2-(4-methoxy-phenyl)-chromen-4-one], the pIC50 in the assay on HK6a (GT6a) was 6.12; with SA13 (GT5a), 5.86; in the assay on J4 (GT1b) it was 5.63; with S52 (GT3a), 5.54. The IC90 is 2390 nM in the assay with HK6a (GT6a), 5330 nM with SA13 (GT5a), 9290 nM with J4 (GT1b) and 10600 nM in the assay on S52 (GT3a). Besides, the “antiviral activity against G451R mutant compared with wild type” value in assay [1] was “not changed”. Further, the “luciferase activity (HCV RNA translation and replication)” value in assay [2] was “not changed”. In addition, the inhibition at 20 µM in the assay on JcR-2a virus particles (20 min, read-out: inhibition of HCV infection) is about 80%; in the assay on JcR-2a virus particles (read-out: inhibition of entry), over 90%.
